The values that follow come from publication PMC7329864, “Role of water in cyclooxygenase catalysis and design of anti-inflammatory agents targeting two sites of the enzyme” (Scientific Reports, 2020).

For one assay, the target named is T1, COX-1 (Ovis aries, UniProt P05979).
T1 construct: purchased Cayman Chemical Co. item no; 560131
T1 sequence (P05979 25-600): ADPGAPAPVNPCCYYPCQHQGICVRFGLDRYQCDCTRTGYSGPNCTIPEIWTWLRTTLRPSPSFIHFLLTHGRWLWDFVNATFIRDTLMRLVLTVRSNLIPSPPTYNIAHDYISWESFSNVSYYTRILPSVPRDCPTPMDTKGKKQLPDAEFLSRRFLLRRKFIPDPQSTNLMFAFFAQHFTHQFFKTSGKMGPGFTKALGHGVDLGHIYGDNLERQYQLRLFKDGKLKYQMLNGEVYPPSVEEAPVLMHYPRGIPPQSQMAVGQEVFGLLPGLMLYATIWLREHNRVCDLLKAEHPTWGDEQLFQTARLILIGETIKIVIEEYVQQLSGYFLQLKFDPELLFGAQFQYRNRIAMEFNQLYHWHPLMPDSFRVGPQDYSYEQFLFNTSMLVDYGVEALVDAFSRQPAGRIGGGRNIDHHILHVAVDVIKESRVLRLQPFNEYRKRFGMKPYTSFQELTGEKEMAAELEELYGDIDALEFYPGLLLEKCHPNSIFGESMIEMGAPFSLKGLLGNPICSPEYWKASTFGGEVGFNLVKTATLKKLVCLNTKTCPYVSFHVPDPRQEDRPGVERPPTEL
Description: COX inhibitory enzyme immunoassay (COX-1). It is filed as biochemical. The protocol:
All the compounds of Fig. 9 were screened for COX-1/2 inhibitory activity in triplicate at 10^–4–10^–8 M concentration by performing enzyme immunoassays. The activity of the compounds was quantified in terms of amount of prostaglandins produced by the enzymes in the presence of different concentrations of the compound.
For studying the COX-1, COX-2 inhibitory activities of the compounds, various reagents were prepared as per the protocol of the assays. The compounds were screened in triplicate at 10^–4–10^–8 M concentration using the procedure as described in the previous report.

A further assay concerns Swiss albino mice. Description: Carageenan induced paw edema, anti-inflammatory activity. The class given is in vivo. The protocol: Since it is known to produce biphasic pain response—the neurogenic pain and the inflammatory phase, 2% formalin injection was given in the right hind paw of the animals (20 µL) and the response was quantified by counting the number of flinching after 30 min of the compound 1 treatment. The inflammatory phase has been reported in the current investigation since the cyclooxygenase inhibitors are known to ameliorate the latter phase. The involvement of cyclooxygenase and lipooxygenase pathways was studied by pretreatment with substance P and nitric oxide pathway was studied by pretreatment with L-arginine and L-NAME as previously described. Anti-inflammatory activity was examined by using carageenan induced paw edema as per the previous report.
Swiss albino mice of either sex (25–35 g) were used for determining the analgesic and anti-inflammatory activity of the compounds. The animals were maintained at 22 ± 2 °C under 12 h light/12 h dark cycle with free supply of food and water. The study was approved by the IAEC of Guru Nanak Dev University, Amritsar, Punjab, India. A total of six groups of animals with 5 animals in each group were used. The experimental procedure as described in our previous report[52],[57] was used for studying the analgesic and anti-inflammatory activity of the compounds. All the treatments were given intraperitoneally (i.p.).

A further assay has as its target T2, COX-2 (Homo sapiens, UniProt P35354).
T2 sequence (P35354 18-604): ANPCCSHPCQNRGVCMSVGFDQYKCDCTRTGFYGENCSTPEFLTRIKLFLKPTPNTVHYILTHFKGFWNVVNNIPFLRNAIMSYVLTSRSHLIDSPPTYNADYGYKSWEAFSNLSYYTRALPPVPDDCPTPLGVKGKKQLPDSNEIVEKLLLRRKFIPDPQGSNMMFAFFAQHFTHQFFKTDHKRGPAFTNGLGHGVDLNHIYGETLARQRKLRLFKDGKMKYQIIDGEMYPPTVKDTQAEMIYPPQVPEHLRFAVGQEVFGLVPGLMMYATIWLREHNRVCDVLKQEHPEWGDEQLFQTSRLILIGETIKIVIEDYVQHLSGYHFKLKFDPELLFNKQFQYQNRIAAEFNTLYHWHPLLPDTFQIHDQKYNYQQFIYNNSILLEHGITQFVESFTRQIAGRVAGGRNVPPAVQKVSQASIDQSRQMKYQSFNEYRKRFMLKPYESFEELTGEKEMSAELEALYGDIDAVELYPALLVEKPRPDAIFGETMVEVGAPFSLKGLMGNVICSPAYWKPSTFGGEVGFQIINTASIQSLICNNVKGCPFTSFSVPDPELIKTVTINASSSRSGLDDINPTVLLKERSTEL
Description: UV-Vis and fluorescence studies of interaction with COX-2. The class given is binding. The text has this:
In order to support in-silico experiments, the interactions of 1, 13d and 15d with COX-2 were checked with UV–vis and fluorescence spectral techniques. […] The appearance of level-off in the visible region (500–700 nm) was attributed to the Mie scattering due to the formation of aggregates. […] Corroborating the results of molecular modelling studies, the changes in the UV–Vis spectra as well as the fluorescence spectrum of the compound on addition of COX-2 probably occurred due to the HOMO–LUMO interactions between 1 and the enzyme (Figure S26). The linear Stern–Volmer plot of decrease in fluorescence intensity at 567 nm on increasing COX-2 concentration gave Stern–Volmer constant Ksv 3.30 × 10^4 M^-1. The detection limit of the compound for COX-2 was 0.02 nM (Figure S26C,D).
In order to support in-silico experiments, the interactions of 1, 13d and 15d with COX-2 were checked with UV-vis and fluorescence spectral techniques. […] The appearance of level-off in the visible region (500-700 nm) was attributed to the Mie scattering due to the formation of aggregates. […] Corroborating the results of molecular modelling studies, the changes in the UV-Vis spectra as well as the fluorescence spectrum of the compound on addition of COX-2 probably occurred due to the HOMO-LUMO interactions between 1 and the enzyme (Figure S27). The linear Stern-Volmer plot of decrease in fluorescence intensity at 567 nm on increasing COX-2 concentration gave Stern-Volmer constant Ksv 3.30x10^4 M^-1. The detection limit of the compound for COX-2 was 0.02 nM (Figure 27C, 27D).

Broadly, the IC50 is the concentration that inhibits the measured activity by half. Read a low IC50 as greater potency. As to `O=C1NC(=O)C(=Cc2cn(CCCCCCn3c4ccccc4c(=O)c4ccccc43)c3ccccc23)C(=O)N1` [Compound 1], on COX-1, it took 60 µM to reach half-maximal inhibition (IC50). In the assay on Swiss albino mice, the “reversal of carageenan induced inflammation” value is on record as 90%. Moreover, in the assay on Swiss albino mice (i.p., comparable to indomethacin), the “paw volume after carageenan injection” value is on record as “significant decrease”. In addition, the “decrease in fluorescence intensity (quenching) in the presence of COX-2” value on COX-2 (addition of COX-2 in Tris–HCl buffer pH 7.25 to solution of compound) is reported as “significant quenching”. Also, the “detection limit of the compound for COX-2” value at COX-2 (fluorescence intensity at 567 nm vs [COX-2], Tris–HCl buffer pH 7.25) is 0.02 nM. In addition, the “Stern–Volmer constant Ksv” value on COX-2 (fluorescence quenching at 567 nm by COX-2, 0.5 µM compound, Tris–HCl buffer pH 7.25) worked out at 33000 M⁻¹.
